Reference: patent US20250043031A1, “NOVEL DRYING METHOD FOR OLIGOSACCHARIDES” (INBIOSE N.V., priority 2021, published 2025)
In brackets after ≈: the same amount, converted by molar mass.

Key:
[1] = Moisture / water content of dried oligosaccharide powder (Karl Fischer titration, infrared moisture analyzer); type: physicochemical; conditions: powder from ATFD system B; heated surface 64-70° C., 20-40 mbar, rotor 800-850 rpm; about 20% dry weight solution in reverse osmosis water
Source text: Sartorius MA150 Infrared Moisture Analyzer is used to determine the dry matter content of the oligosaccharides. 0.5 g of oligosaccharide is weighed on an analytical balance and is dried in the infrared moisture analyzer until the weight of the sample is stable. The mass of the dried sample divided by the mass of the sample before drying gives the dry matter content (in percent) of the oligosaccharides or sample including oligosaccharides. In a similar way a liquid sample is weighed, however, the amount of liquid weighed is adapted to the expected amount of dry matter in the liquid, so the mass of the dry matter is properly measurable on an analytical balance.
A moisture analyzer measures the dry matter, but not the water content. Karl Fisher titration is used to determine the amount of water present in a powder, ingredient of food. […]
The moisture content (MC) of sample was calculated using the following equation: […]
For testing the principle of agitated thin film drying on oligosaccharides according to the disclosure, a model system (i.e., system A as described throughout the Examples) is used wherein the model directly translates to large scale manufacturing. […] The ATFD chamber was equipped with a Liebig condenser and a dropping funnel to condense and quantify the vapor release. […]
Solutions (such as syrups) containing an oligosaccharide or a mixture of oligosaccharides were preheated to a temperature between 3° and 100° C. and pumped to the system with a peristaltic pump with a flow ranging from 0.1 to 1 kg/h. […] The amount of condensed water was measured and used to obtain the evaporation rate. The specific evaporation rate was calculated by dividing the evaporation rate by the used heat exchange area.
A pilot ATFD system (i.e., system B as described throughout the Examples) was used to produce larger amounts of dried oligosaccharide. […] The amount of condensed water was measured and used to obtain the evaporation rate. The specific evaporation rate was calculated by dividing the evaporation rate by the used heat exchange area. […]

[2] = Oligosaccharide analysis of ATFD powder: breakdown during the drying run; type: physicochemical; conditions: ATFD system B; 1-hour run (2′FL) or 2-hour run (LNnT, 6′SL); heated surface 64-70° C., 20-40 mbar
Protocol: Neutral oligosaccharides were analyzed on a Waters™ Acquity H-class UPLC with Evaporative Light Scattering Detector (ELSD) or a Refractive Index (RI) detection. A volume of 0.7 μL sample was injected on a Waters™ Acquity UPLC BEH Amide column (2.1×100 mm; 130 Å; 1.7 μm) column with an Acquity UPLC BEH Amide VanGuard column, 130 Å, 2.1×5 mm. The column temperature was 50° C. The mobile phase consisted of a ¼ water and ¾ acetonitrile solution to which 0.2% triethylamine was added. The method was isocratic with a flow of 0.130 mL/min. […] The temperature of the RI detector was set at 35° C.
(§1) Sialylated oligosaccharides were analyzed on a Waters™ Acquity H-class UPLC with Refractive Index (RI) detection. A volume of 0.5 μL sample was injected on a Waters™ Acquity UPLC BEH Amide column (2.1×100 mm; 130 Å; 1.7 μm). The column temperature was 50° C. The mobile phase consisted of a mixture of 70% acetonitrile, 26% ammonium acetate buffer (150 mM) and 4% methanol to which 0.05% pyrrolidine was added. The method was isocratic with a flow of 0.150 mL/min. The temperature of the RI detector was set at 35° C.
as §1, with “Both neutral and sialylated sugars” for “Sialylated oligosaccharides”, “72% acetonitrile and 28%” for “70% acetonitrile, 26%”, “(100” for “(150”, “mM)” for “mM) and 4% methanol”, “0.1% triethylamine” for “0.05% pyrrolidine”, “0.260” for “0.150”
A pilot ATFD system (i.e., system B as described throughout the Examples) was used to produce larger amounts of dried oligosaccharide. The inner diameter and length of the drying chamber is 15.1 cm and 41.7 cm, respectively. The heat exchanger area is 0.2 m^2. […] The amount of condensed water was measured and used to obtain the evaporation rate. The specific evaporation rate was calculated by dividing the evaporation rate by the used heat exchange area.

[3] = Color of powder obtained by ATFD; type: physicochemical; conditions: ATFD system B; from 15 min (2′FL), 30 min (LNnT) or 20 min (6′SL) and at each subsequent time-point
Source text: In a first aspect, provided is a method for drying an oligosaccharide and/or for obtaining an oligosaccharide in the form of a solid (preferably a powder), the method comprising the steps of: • i) providing a solution comprising an oligosaccharide; and • ii) applying the solution to an agitated thin film dryer, • wherein the oligosaccharide has a degree of polymerization (DP) that is less than 16, preferably less than 15, even more preferably less than 14, even more preferably less than 13, even more preferably less than 12, even more preferably less than 11, even more preferably less than 10, even more preferably less than 9, even more preferably less than 8, most preferably less than 7. […] The “ICUMSA” refers to the International Commission for Uniform methods of Sugar Analysis, i.e., the unit used for the measurement of sugar color.
A pilot ATFD system (i.e., system B as described throughout the Examples) was used to produce larger amounts of dried oligosaccharide. The inner diameter and length of the drying chamber is 15.1 cm and 41.7 cm, respectively. The heat exchanger area is 0.2 m^2. The heat exchanger area can be heated at 50-120° C. using steam. The distance between the rotor and wall is 0.9 mm. The blades can rotate at 200-2200 rpm. The condenser was operated with cooling water of 5-6° C. The amount of condensed water was measured and used to obtain the evaporation rate. The specific evaporation rate was calculated by dividing the evaporation rate by the used heat exchange area.

[4] = 25° C.; literature values (WO2018/164937, EFSA Journal); cited from earlier work
[5] = Bulk density of powder (ASTM D1895 method A, i.e., ISO Method R 60); type: physicochemical; conditions: for bulk density of the powder obtained by ATFD, average during the run: ATFD system B powder; for bulk density of the spray dried powder: spray dried powder (comparison)
Source text: As used herein, the term “bulk density” is the weight of the particles of a particulate solid (such as a powder) in a given volume, and is expressed in grams per liter (g/L). The total volume that the particles of a particulate solid occupy depends on the size of the particles themselves and the volume of the spaces between the particles. Entrapped air between and inside the particles also can affect the bulk density. Thus, a particulate solid consisting of large, porous particles with large inter-particulate spaces will have a lower bulk density than a particulate solid consisting of small, non-porous particles that compact closely together. Bulk density can be expressed in two forms: “loose bulk density” and “tapped bulk density.” Loose bulk density (also known in the art as “freely settled” or “poured” bulk density) is the weight of a particulate solid divided by its volume where the particulate solid has been allowed to settle into that volume of its own accord (e.g., a powder poured into a container).
Techniques for measuring bulk density are well known in the art. Loose bulk density may be measured using a measuring cylinder and weighing scales: the particulate solid is poured into the measuring cylinder and the weight and volume of the particulate solid; weight divided by volume gives the loose bulk density. Tapped bulk density can be measured using the same technique, with the addition of tapping the measuring cylinder a set number of times before measuring weight and volume. Automation of tapping ensures the number, timing and pressure of individual taps is accurate and consistent. Automatic tapping devices are readily available, an example being the Jolting Stampfvolumeter (STAV 203) from J. Englesmann A G.
Lacto-N-neotetraose (LNnT) was recombinantly produced in E. coli according to Example 2, followed by a cell lysis treatment and/or broth clarification according to Example 4. The clarified broth was finally spray dried as described in Example 1 to obtain a powder comprising LNnT (74%), pLNnH (13%; para-lacto-N-neohexaose) and LNT-II (3%; lacto-N-triose II). A solution (16.1 kg) of LNnT was then prepared in reverse osmosis water such that the dry weight is 19.60%. The LNnT solution was then fed into the ATFD system B (it is referred to Example 1) at 7.7 kg/h. […] Every 5 minutes, a sample of the obtained powder was analyzed according to Example 1 (dry matter content, moisture content, oligosaccharide analysis, color).
6′-sialyllactse (6′SL) was recombinantly produced in E. coli according to Example 2, followed by a cell lysis treatment and/or broth clarification according to Example 4. […] Every 5 minutes, a sample of the obtained powder was analyzed according to Example 1 (dry matter content, moisture content, oligosaccharide analysis, color).

Row | Compound | mean moisture content [1] | oligosaccharide broken down at the end of the run [2] | color of the obtained powder [3] | bulk density of the powder obtained by ATFD, average during the run [5] [g/L] | bulk density of the spray dried powder [5] [g/L] | solubility in an aqueous solution [4]
1 | 2′-fucosyllactose | 2.47% | less than 4% | white to off-white | – | – | 1410 mg/mL
2 | CC(=O)N[C@H]1[C@H]([C@H](O)[C@H](O)CO)O[C@@](O[C@H]2[C@@H](O)[C@@H](CO)O[C@@H](O[C@H]3[C@H](O)[C@@H](O)C(O)O[C@@H]3CO)[C@@H]2O)(C(=O)O)C[C@@H]1O (stereo partly drawn) [3′-sialyllactose] | – | – | – | – | – | 500 mg/mL (≈ 789 mM)
3 | CC(=O)N[C@H]1[C@H](O[C@H]2[C@@H](O)[C@@H](CO)O[C@@H](O[C@H]3[C@H](O)[C@@H](O)C(O)O[C@@H]3CO)[C@@H]2O)O[C@H](CO)[C@@H](O)[C@@H]1O[C@@H]1O[C@H](CO)[C@H](O)[C@H](O)[C@H]1O (stereo partly drawn) [Lacto-N-tetraose] | – | – | – | – | – | 400 mg/mL (≈ 565 mM)

More lines, main results first:

Row | mean moisture content [1] | oligosaccharide broken down at the end of the run [2] | color of the obtained powder [3] | bulk density of the powder obtained by ATFD, average during the run [5] [g/L] | bulk density of the spray dried powder [5] [g/L] | Compound | solubility in an aqueous solution [4]
4 | 5.5% | less than 10% | white to off-white | 509 ± 16 | 368 | CC(=O)N[C@H]1[C@H](O[C@H]2[C@@H](O)[C@@H](CO)O[C@@H](O[C@H]3[C@H](O)[C@@H](O)C(O)O[C@@H]3CO)[C@@H]2O)O[C@H](CO)[C@@H](O[C@@H]2O[C@H](CO)[C@H](O)[C@H](O)[C@H]2O)[C@@H]1O (mixture of isomers) [Lacto-N-neotetraose] | 500 mg/mL
5 | 6.2-6.8% | less than 10% | white to off-white | 521 ± 10 | 321 | CC(=O)N[C@H]1[C@H]([C@H](O)[C@H](O)CO)O[C@@](OC[C@H]2O[C@@H](O[C@H]3[C@H](O)[C@@H](O)[C@H](O)O[C@@H]3CO)[C@H](O)[C@@H](O)[C@H]2O)(C(=O)O)C[C@@H]1O [6′-sialyllactose] | at least 500 g/L
